Reference: patent publication US10603345B2, “Pharmaceutical composition for treating respiratory disease” (Kunming Institute of Botany, The Chinese Academy of Sciences, priority 2015, dated 2020)

Experiments:
Format in all cases: in vivo
[1] = tested on: IL-10 in BALF of asthma model mouse; assay: Effect on IL-10 in BALF of asthma model mouse; conditions: ELISA, ig 7 d, dose/kg: dexamethasone 2.0 mg, Test group 1 50, 2 25, picrinine 5.0, vallesamine 3.0, scholaricine 3.0, 19-epi-scholaricine 3.5 mg, x ± SD
Procedure: (§1) Animal source: 25˜30 g male ICR mouse, from laboratory animal department of Kunming Medical University, License No. SCXK (Dian) 2011-0004.
(§2) Method and route: ovalbumin (OVA) was used to induce mouse asthma model, and after intragastrical administration for 7 d at a dose of 20 mL/kg, the animal was sacrificed at the eighth day.
(§3) Test group 1: picrinine, vallesamine, scholaricine and 19-epischolaricine prepared in Example 1.7 were homogeneously mixed at different ratios by weight (50 mg/kg), Test group 2: the alkaloid composition prepared in Example 1.4 (25 mg/kg). […]
(§4) Sample preparation: all the samples were prepared by using 0.5% carboxymethylcellulose sodium (0.5% CMC-Na).
Group and dose: in Test group 1, the ratio of picrinine, vallesamine, scholaricine and 19-epischolaricine by weight was 18:13:14:3, and the other groups and doses thereof were as described in Example 11.
Test index: IL-10 in BALF was used as index, and was determined by enzyme linked immunosorbent assay.

[2] = tested on: IgE in serum of asthma model mouse; assay: Effect on IgE in serum of asthma model mouse; conditions: ELISA, ig 7 d, dose/kg: dexamethasone 2.0 mg, Test group 1 50, 2 25, picrinine 5.0, vallesamine 3.0, scholaricine 3.0, 19-epi-scholaricine 3.5 mg, x ± SD
Procedure: as §1, §2, §3, §4
Group and dose: In Test group 1, the ratio of picrinine, vallesamine, scholaricine and 19-epischolaricine by weight was 30:33:27:6, and the other groups and doses thereof were as described in Example 11.
Test index: immunoglobulin IgE in serum was used as index, and was determined by enzyme linked immunosorbent assay.

[3] = tested on: IL-6 in serum of COPD model mouse; assay: Effect on IL-6 in serum of COPD model mouse; conditions: ELISA, ig 7 d, dose/kg: dexamethasone 1 mg, Test group 1 50, 2 25, 3 10, picrinine 10, vallesamine 6, scholaricine 7, 19-epi-scholaricine 2 mg, x ± SD
Procedure: as §1
(§5) Method and route: lipopolysaccharide (LPS) plus smoke exposure was used for 30 days to induce mouse chronic obstructive pulmonary disease model; and after intragastrical administration for 7 d at a dose of 20 mL/kg, the animal was sacrificed at the eighth day.
(§6) Picrinine group (10 mg/kg), Vallesamine group (6.0 mg/kg), Scholaricine group (7.0 mg/kg), 19-epischolaricine group (2.0 mg/kg).
as §4
Group and dose: in Test group 1, the ratio of picrinine, vallesamine, scholaricine and 19-epischolaricine by weight was 38:30:27:7, and the other groups and doses thereof were as described in Example 10.
Test index: IL-6 in serum was used as index, and was determined by enzyme linked immunosorbent assay.

[4] = tested on: Eotaxin in serum of asthma model mouse; assay: Effect on Eotaxin in serum of asthma model mouse; conditions: ELISA, ig 7 d, dose/kg: dexamethasone 2.0 mg, Test group 1 50, 2 25, picrinine 5.0, vallesamine 3.0, scholaricine 3.0, 19-epi-scholaricine 3.5 mg, x ± SD
Procedure: as §1, §2, §3, §4
Group and dose: in Test group 1, the ratio of picrinine, vallesamine, scholaricine and 19-epischolaricine by weight was 37:42:30:8, and the other groups and doses thereof were as described in Example 11.
Test index: eosinophil chemotactic factor (Eotaxin) in serum was used as index, and was determined by enzyme linked immunosorbent assay.

[5] = tested on: IL-4 in BALF of asthma model mouse; assay: Effect on IL-4 in BALF of asthma model mouse; conditions: ELISA, ig 7 d, dose/kg: dexamethasone 2.0 mg, Test group 1 50, 2 25, picrinine 5.0, vallesamine 3.0, scholaricine 3.0, 19-epi-scholaricine 3.5 mg, x ± SD
Procedure: as §1, §2, §3, §4
Group and dose: in Test group 1, the ratio of picrinine, vallesamine, scholaricine and 19-epischolaricine by weight was 25:18:15:3, and the other groups and doses thereof were as described in Example 11. […]

[6] = tested on: SOD in serum and homogenate of COPD model mouse; assay: Effect on SOD in serum and homogenate of COPD model mouse; conditions: ig 7 d, dose/kg: dexamethasone 1 mg, Test group 1 50, 2 25, 3 10, picrinine 10, vallesamine 6, scholaricine 7, 19-epi-scholaricine 2 mg, x ± SD
Procedure: as §1, §5, §6, §4
Group and dose: in Test group 1, the ratio of picrinine, vallesamine, scholaricine and 19-epischolaricine by weight was 16:11:12:3, and the other groups and doses thereof were as described in Example 10.
Test index: SOD in serum and lung homogenate was used as index, and was determined by xanthine oxidase method.

[7] = tested on: WBC count and eosinophil percentage in BALF of asthma model mouse; assay: Effect on WBC count and eosinophil percentage in BALF of asthma model mouse; conditions: OVA-induced asthma mouse, ig 7 d, dose/kg: dexamethasone 2 mg, Test group 1 50, 2 25, picrinine 5.0, vallesamine 3.0, scholaricine 3.0, 19-epi-scholaricine 3.5 mg, x ± SD
Procedure: as §1, §2, §3, §4
Group and dose: in Test group 1, the ratio of picrinine, vallesamine, scholaricine and 19-epischolaricine by weight was 41:45:28:7, and the other groups and doses thereof were as described in Example 11.
Test index: number of white blood cells (WBCs) and number of eosinophil in bronchoalveolar lavage fluid (BALF) were used as index, and were determined by full-automatic hemocytometer.

[8] = tested on: MDA in serum and BALF of asthma model mouse; assay: Effect on MDA in serum and BALF of asthma model mouse; conditions: ig 7 d, dose/kg: dexamethasone 2.0 mg, Test group 1 50, 2 25, picrinine 5.0, vallesamine 3.0, scholaricine 3.0, 19-epi-scholaricine 3.5 mg, x ± SD
Procedure: as §1, §2, §3, §4
Group and dose: in Test group 1, the ratio of picrinine, vallesamine, scholaricine and 19-epischolaricine by weight was 8:6:5:1, and the other groups and doses thereof were as described in Example 11.
Test index: MDA in serum and BALF was used as index, and was determined by thiobarbituric acid method.

[9] = tested on: white blood cell count and classification in BALF of COPD model mouse; assay: Effect on white blood cell count and classification in BALF of COPD model mouse; conditions: COPD mouse (LPS plus smoke exposure 30 days), ig 7 d, dose/kg: dexamethasone 1 mg, Test group 1 50, 2 25, 3 10, picrinine 10, vallesamine 6, scholaricine 7, 19-epi-scholaricine 2 mg, x ± SD
Procedure: as §1, §5, §6, §4
Group and dose: in Test group 1, the ratio of picrinine, vallesamine, scholaricine and 19-epischolaricine by weight was 48:40:29:10, and the other groups and doses thereof were as described in Example 10.
Test index: total number of white blood cells and inflammatory cell classification in bronchoalveolar lavage fluid (BALF) were used as indexes, and were determined by full-automatic hemocytometer.

[10] = tested on: SOD in serum and BALF of asthma model mouse; assay: Effect on SOD in serum and BALF of asthma model mouse; conditions: ig 7 d, dose/kg: dexamethasone 2.0 mg, Test group 1 50, 2 25, picrinine 5.0, vallesamine 3.0, scholaricine 3.0, 19-epi-scholaricine 3.5 mg, x ± SD
Procedure: as §1, §2, §3, §4
Group and dose: in Test group 1, the ratio of picrinine, vallesamine, scholaricine and 19-epischolaricine by weight was 12:10:9:2, and the other groups and doses thereof were as described in Example 11.
Test index: SOD in serum and BALF was used as index, and was determined by xanthine oxidase method.

[11] = tested on: CRP in serum in COPD model mouse; assay: Effect on CRP in serum in COPD model mouse; conditions: ELISA, ig 7 d, dose/kg: dexamethasone 1 mg, Test group 1 50, 2 25, 3 10, picrinine 10, vallesamine 6, scholaricine 7, 19-epi-scholaricine 2 mg, x ± SD
Procedure: as §1, §5, §6, §4
Group and dose: in Test group 1, the ratio of picrinine, vallesamine, scholaricine and 19-epischolaricine by weight was 25:19:20:4, and the other groups and doses thereof were as described in Example 10.
Test index: CRP in serum was used as index, and was determined by enzyme linked immunosorbent assay.

[12] = tested on: MDA in serum and homogenate of COPD model mouse; assay: Effect on MDA in serum and homogenate of COPD model mouse; conditions: ig 7 d, dose/kg: dexamethasone 1 mg, Test group 1 50, 2 25, 3 10, picrinine 10, vallesamine 6, scholaricine 7, 19-epi-scholaricine 2 mg, x ± SD
Procedure: as §1, §5, §6, §4
Group and dose: in Test group 1, the ratio of picrinine, vallesamine, scholaricine and 19-epischolaricine by weight was 9:6:5:1, and the other groups and doses thereof were as described in Example 10.
Test index: MDA in serum and homogenate was used as index, and was determined by thibabituric acid method.

Question: Which results are given for `C[C@@H]1C[C@H]2[C@@H]3CCC4=CC(=O)C=C[C@]4(C)[C@@]3(F)[C@@H](O)C[C@]2(C)[C@@]1(O)C(=O)CO` [dexamethasone, reference compound]?
Answer: IL-10 [1]: 17.45 ± 5.60 pg/mL; IgE [2]: 3.23 ± 0.53 g μg/mL; IL-6 [3]: 22.0 ± 2.0 pg/mL; Eotaxin [4]: 7.87 ± 0.45 pg/mL; IL-4 [5]: 9.96 ± 4.03 pg/mL; SOD homogenate ([6]; lung homogenate): 63.92 ± 5.84 U/mL; SOD Serum ([6]; serum): 86.85 ± 9.48 U/mL; Eosinophil percentage [7]: 4.32 ± 1.12 %; Number of WBCs [7]: 0.50 ± 0.17 ×10^9/L; MDA lavage fluid ([8]; BALF): 2.17 ± .17 nmol/mL; MDA Serum ([8]; serum): 10.99 ± 2.38 nmol/mL; Leukocyte number [9]: 1.1 ± 0.5 ×10^5/mL; Neutrophil number [9]: 0.53 ± 0.50 ×10^5/mL; SOD lavage fluid ([10]; BALF): 76.57 ± 12.52 U/mL; SOD Serum ([10]; serum): 74.83 ± 8.43 U/mL; CRP [11]: 22.3 ± 2.0 pg/mL; MDA Homogenate ([12]; lung homogenate): 6.23 ± 0.60 nmol/mL; MDA Serum ([12]; serum): 14.04 ± 3.64 nmol/mL
